Consider 19 compounds from PubChem BioAssay (NCI).

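Five concentrations, 48 hours, 96-well plates. GI50: concentration for 50% inhibition of growth. TGI is the concentration that stops growth completely.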

Test systems include ACHN renal; CAKI-1 renal; HL-60(TB) leukemia; LOX IMVI melanoma; MDA-MB-435; RPMI-8226 leukemia; RXF 393 renal; SK-OV-3 ovarian; SNB-19 CNS; SNB-75 CNS.
What all share (assay): NCI tumour cell line growth inhibition, 48 h

Turning to `FC1=C2C3CCC(C3)C2C1(F)F` (centres undefined), the TGI with ACHN renal, with CAKI-1 renal, with HL-60(TB) leukemia, with LOX IMVI melanoma, in the experiment on MDA-MB-435 and in the experiment with RPMI-8226 leukemia was > 100 µM in each case. The TGI in the experiment on RXF 393 renal, in the experiment with SK-OV-3 ovarian, with SNB-19 CNS and in the experiment with SNB-75 CNS was > 100 µM in each case.
On to `N#Cc1nc(CCc2nc(C#N)c(N)o2)oc1N`, for which the TGI in the experiment with ACHN renal, in the experiment with CAKI-1 renal, in the experiment with HL-60(TB) leukemia, in the experiment on LOX IMVI melanoma, with MDA-MB-435 and with RPMI-8226 leukemia was > 10 µM throughout. Further, the TGI in the experiment on RXF 393 renal, in the experiment with SK-OV-3 ovarian, in the experiment on SNB-19 CNS and with SNB-75 CNS was > 10 µM in each case.
For `COc1cc2c(cc1O)C1Cc3ccc(OC)c(O)c3C[N+]1(C)CC2` (centres undefined), the TGI in the experiment with ACHN renal, in the experiment on CAKI-1 renal, with HL-60(TB) leukemia, with LOX IMVI melanoma, with MDA-MB-435 and in the experiment with RPMI-8226 leukemia was > 100 µM in each case. In addition, the TGI in the experiment with RXF 393 renal, with SK-OV-3 ovarian, with SNB-19 CNS and in the experiment with SNB-75 CNS was > 100 µM throughout.
As to `COc1ccc(CCNC(=O)Cc2ccccc2CO)cc1OC`, the TGI with ACHN renal, with CAKI-1 renal, in the experiment on HL-60(TB) leukemia, with LOX IMVI melanoma, in the experiment with MDA-MB-435 and in the experiment on RPMI-8226 leukemia was > 100 µM throughout. The TGI in the experiment with RXF 393 renal, in the experiment with SK-OV-3 ovarian and with SNB-75 CNS was > 100 µM throughout.
With `COC1CC(C)(NC(=O)C(F)(F)F)C2OC(c3ccccc3)OCC2O1` (centres undefined), the TGI in the experiment with ACHN renal, in the experiment on CAKI-1 renal, in the experiment with HL-60(TB) leukemia, with LOX IMVI melanoma, in the experiment with MDA-MB-435 and with RPMI-8226 leukemia was > 100 µM each time. In addition, the TGI in the experiment with RXF 393 renal, in the experiment with SK-OV-3 ovarian, in the experiment with SNB-19 CNS and with SNB-75 CNS was > 100 µM in each case.
With `CC(C)(CO[C@H]1C[C@H]2CC[C@@]1(C)C2(C)C)[N+](=O)[O-]`, the TGI was > 100 µM with ACHN renal; 60.3 µM in the experiment on CAKI-1 renal; 22.5 µM in the experiment on HL-60(TB) leukemia; 35.1 µM with LOX IMVI melanoma; 34 µM with MDA-MB-435; 38.7 µM with RPMI-8226 leukemia. The TGI in the experiment with RXF 393 renal was 26.1 µM; in the experiment with SK-OV-3 ovarian it was > 100 µM; in the experiment with SNB-19 CNS it was 37.2 µM; in the experiment with SNB-75 CNS, 45.1 µM.
As for `C=C(NC(=O)C(=C)NC(=O)c1ccc2c(n1)-c1coc(n1)C(=C)NC(=O)C(=C)NC(=O)c1nc(oc1C)C(=C)NC(=O)C(C(C)(C)O)NC(=O)C(=C)NC(=O)c1coc(n1)/C(=C/C)NC(=O)[C@H]([C@@H](C)O)NC(=O)c1csc-2n1)C(N)=O` (some centres undefined), the TGI in the experiment with ACHN renal, in the experiment on CAKI-1 renal, with HL-60(TB) leukemia, in the experiment with LOX IMVI melanoma, with MDA-MB-435 and in the experiment on RPMI-8226 leukemia was > 87.5 µM throughout. The TGI with RXF 393 renal, in the experiment with SNB-19 CNS and with SNB-75 CNS was > 87.5 µM throughout.
As to `O=C1[C@@H]2[C@@H](CN3CN(c4ccccc4)N=C(c4ccccc4)[C@@]23c2ccccc2)C(=O)N1c1ccccc1`, the TGI worked out at 3.69 µM with ACHN renal; 2.45 µM with CAKI-1 renal; 6.33 µM in the experiment with HL-60(TB) leukemia; 3.3 µM in the experiment with LOX IMVI melanoma; 23.2 µM with MDA-MB-435; 12.4 µM in the experiment with RPMI-8226 leukemia. Moreover, the TGI turned out to be 9.65 µM with RXF 393 renal, 27.7 µM in the experiment on SK-OV-3 ovarian, 36.8 µM with SNB-19 CNS and 34.9 µM in the experiment on SNB-75 CNS.
For the compound `CCOC(=O)NC(=S)N(CC(=O)c1cc(OC)c(OC)c(OC)c1)c1ccc(Cl)cc1`, the GI50 is > 100 µM with ACHN renal; 63.5 µM in the experiment on CAKI-1 renal; 65.7 µM in the experiment with HL-60(TB) leukemia; 23.7 µM in the experiment on LOX IMVI melanoma; > 100 µM in the experiment with MDA-MB-435; 30.2 µM with RPMI-8226 leukemia. The GI50 was 17.2 µM in the experiment with RXF 393 renal, > 100 µM in the experiment on SK-OV-3 ovarian, > 100 µM in the experiment with SNB-19 CNS and 34.1 µM with SNB-75 CNS. Besides, the TGI with ACHN renal, with CAKI-1 renal, with HL-60(TB) leukemia, with LOX IMVI melanoma, with MDA-MB-435 and with RPMI-8226 leukemia was > 100 µM throughout. The TGI with RXF 393 renal is 89.7 µM; with SK-OV-3 ovarian, > 100 µM; with SNB-19 CNS it was > 100 µM; with SNB-75 CNS, > 100 µM.
For the compound `O=C(O)C(Cc1ccccc1)NCc1c(O)ccc2c(-c3ccccc3)cc(=O)oc12` (centres undefined), the TGI in the experiment with ACHN renal, with CAKI-1 renal, in the experiment with HL-60(TB) leukemia, in the experiment with LOX IMVI melanoma, in the experiment with MDA-MB-435 and with RPMI-8226 leukemia was > 100 µM throughout. The TGI in the experiment on RXF 393 renal, in the experiment on SK-OV-3 ovarian, in the experiment with SNB-19 CNS and in the experiment with SNB-75 CNS was > 100 µM in each case.
As for `COC(=O)[C@]1(c2cc3ccccc3n2S(=O)(=O)c2ccccc2)CC2CN(C(=O)OCc3ccccc3)C1C1OC(C)(C)OC21` (some centres undefined), the TGI with ACHN renal, with CAKI-1 renal, in the experiment on HL-60(TB) leukemia, in the experiment with LOX IMVI melanoma, in the experiment on MDA-MB-435 and in the experiment with RPMI-8226 leukemia was > 100 µM each time. The TGI with RXF 393 renal, in the experiment with SK-OV-3 ovarian and in the experiment with SNB-75 CNS was > 100 µM throughout.
In the case of `C[C@]12CC[C@H]3[C@@H](CC=C4C[C@@H](N5CCCC5)CC[C@@]43C)[C@@H]1C[C@H](N1CCCCC1)[C@@H]2O`, the TGI is > 100 µM in the experiment on ACHN renal; > 100 µM in the experiment with CAKI-1 renal; > 100 µM in the experiment with HL-60(TB) leukemia; > 100 µM in the experiment on LOX IMVI melanoma; > 100 µM with MDA-MB-435; 85.7 µM with RPMI-8226 leukemia. Moreover, the TGI with RXF 393 renal, in the experiment on SK-OV-3 ovarian, in the experiment on SNB-19 CNS and in the experiment on SNB-75 CNS was > 100 µM each time.
With `C=C(Br)CN=CN(C)C`, the TGI with ACHN renal, in the experiment on CAKI-1 renal, in the experiment on HL-60(TB) leukemia, in the experiment on LOX IMVI melanoma, in the experiment with MDA-MB-435 and in the experiment on RPMI-8226 leukemia was > 100 µM in each case. The TGI with RXF 393 renal, in the experiment with SK-OV-3 ovarian, in the experiment with SNB-19 CNS and in the experiment with SNB-75 CNS was > 100 µM throughout.
For `Cn1c(=O)c2c(nc3[nH]c(=O)c(Br)cn32)n(C)c1=O`, the TGI in the experiment with ACHN renal, in the experiment on CAKI-1 renal, with HL-60(TB) leukemia, in the experiment on LOX IMVI melanoma, with MDA-MB-435 and in the experiment with RPMI-8226 leukemia was > 100 µM throughout. Also, the TGI in the experiment on RXF 393 renal, in the experiment on SK-OV-3 ovarian, with SNB-19 CNS and in the experiment with SNB-75 CNS was > 100 µM in each case.
On to `COC(=O)c1c2c(cc3c1CC1(Cc4cc5c(c(C=O)c4C1)CCC5)C3)CCC2` (centres undefined), for which the TGI in the experiment with ACHN renal is > 100 µM; in the experiment on CAKI-1 renal, > 100 µM; in the experiment on HL-60(TB) leukemia it was 51.5 µM; in the experiment with LOX IMVI melanoma it was 56.5 µM; with MDA-MB-435 it was 50.5 µM; in the experiment with RPMI-8226 leukemia, > 100 µM. Also, the TGI in the experiment with RXF 393 renal, in the experiment on SK-OV-3 ovarian, in the experiment on SNB-19 CNS and in the experiment on SNB-75 CNS was > 100 µM each time.
For the compound `C=C1c2nc3ccccc3n2C=C(c2ccc(C)cc2)N1c1ccc(OC)cc1`, the TGI in the experiment with ACHN renal is > 100 µM; in the experiment on CAKI-1 renal, > 96.9 µM; with HL-60(TB) leukemia it was 55.6 µM; in the experiment with LOX IMVI melanoma, > 100 µM; in the experiment with MDA-MB-435 it was 49.2 µM; with RPMI-8226 leukemia, > 58.5 µM. The TGI in the experiment on RXF 393 renal, in the experiment with SK-OV-3 ovarian, in the experiment on SNB-19 CNS and with SNB-75 CNS was > 100 µM each time.
As for `O=C(Nc1ccccc1)N1CCN(C(=O)Nc2ccccc2)C1=S`, the TGI in the experiment with ACHN renal, with CAKI-1 renal, in the experiment with HL-60(TB) leukemia, in the experiment with LOX IMVI melanoma, with MDA-MB-435 and in the experiment on RPMI-8226 leukemia was > 100 µM each time. In addition, the TGI in the experiment on RXF 393 renal is 43.6 µM; in the experiment on SK-OV-3 ovarian, 76.3 µM; in the experiment with SNB-75 CNS, 47.2 µM.
As to `O=P1(N(CCCl)CCCl)Oc2ccc(Cl)cc2C(C(Cl)(Cl)Cl)c2cc(Cl)ccc2O1` (centres undefined), the TGI is > 100 µM in the experiment on ACHN renal; > 100 µM with CAKI-1 renal; > 100 µM with HL-60(TB) leukemia; 28.7 µM in the experiment with LOX IMVI melanoma; 71.8 µM in the experiment on MDA-MB-435; > 100 µM in the experiment with RPMI-8226 leukemia. Also, the TGI in the experiment on RXF 393 renal is 29.3 µM; in the experiment with SK-OV-3 ovarian, > 100 µM; in the experiment on SNB-75 CNS it was 37.9 µM.
As to `CCc1nc(N)c2nc(-c3cccs3)oc2n1`, the TGI with ACHN renal, in the experiment on CAKI-1 renal, in the experiment on HL-60(TB) leukemia, in the experiment with LOX IMVI melanoma, in the experiment with MDA-MB-435 and in the experiment with RPMI-8226 leukemia was > 100 µM in each case. Moreover, the TGI with RXF 393 renal, in the experiment with SNB-19 CNS and in the experiment with SNB-75 CNS was > 100 µM throughout.
